# Values joined by “and” are separate entries in the source; they are usually repeats but may differ in a detail not shown here. Identical values can stand only once.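 Briefly, cells in 96-well plates were exposed to five compound concentrations for 48 h, and endpoints were estimated by linear interpolation. GI50 marks 50% less growth. TGI is the concentration that stops growth completely.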
# System: A549 NSCLC
# Assay: NCI tumour cell line growth inhibition, 48 h
SMILES,GI50,TGI
O=C(/C(=C\c1c(-c2ccccc2)[nH]c2ccccc12)S(=O)(=O)c1ccccc1)c1ccccc1,35 µM,> 100 µM
COc1ccc(C(=O)c2cc(OC)c(OC)c(OC)c2)cc1OC,,> 100 µM
CCNC(=O)/C(=C/c1ccc(OC)cc1)c1cc(OC)c(OC)c(OC)c1,,> 100 µM
CCCc1cc(=O)n2c(C(=O)Nc3ccc(Cl)cc3C)c(C(=O)Nc3ccc(F)cc3)sc2n1,2.63 µM,5.95 µM
Cc1ccc(OCCOCCOCCOCCOc2ccc(C)n(O)c2=S)c(=S)n1O,0.0449 µM,> 100 µM
N[C@H](CCC(=O)N[C@@H](Cc1c[nH]c2ccccc12)C(=O)O)C(=O)O,> 100 µM,> 100 µM
CN(C)CCNCCN,,> 100 µM
Nc1ccccc1O.O.O=C(O)C1[O][Sb][O]C1C(=O)O (stereo not drawn),54.7 µM,> 100 µM
O=C(c1ccco1)c1c(C(F)(F)F)n([O-])c2ccc(C(F)(F)F)cc2[n+]1=O,0.254 µM,0.7 µM
OC(c1cc(-c2ccc(C(F)(F)F)cc2)nc(C(F)(F)F)c1)C1CCCCN1 (stereo not drawn),1.84 µM and 2.05 µM,3.4 µM and 4.92 µM
CC(C)CC(C/C=C1/CC(CO)(COC(=O)C(C)(C)C)OC1=O)CC(C)C (stereo not drawn),1.07 µM and 0.515 µM,16.1 µM and 11.2 µM
O=C(Nc1cc(Nc2ncccc2-c2ncnc3nc[nH]c23)ccc1F)c1cc(C(F)(F)F)cc(C(F)(F)F)c1,3.05 µM,> 10 µM
CCc1ccc2c(c1)C(=O)c1c-2n(CCCN=[N+]=[N-])c(=O)c2cc([N+](=O)[O-])ccc12,> 50 µM,> 50 µM
CCC/C=C/C=C/C1CC(O)C(O)C(=O)C1CO (stereo not drawn),,> 100 µM

# System: HS 578T breast
# Assay: NCI tumour cell line growth inhibition, 48 h
SMILES,GI50,TGI
O=C1CCCN1c1ccccc1I(=O)=O,> 100 µM,> 100 µM
COC(=O)C1=COC(C)C2CN3CCc4c([nH]c5ccccc45)C3CC12 (stereo not drawn),,65.8 µM and > 100 µM
O=C(NCc1ccc(Cn2c(=O)sn(-c3ccccc3)c2=O)cc1)OCc1ccc2cccc(O)c2n1,1.71 µM,4.9 µM
COC(c1ccc(C(C)(C)C)cc1)(c1ccc(C(C)(C)C)cc1)c1ccc(C(C)(C)C)cc1,,> 100 µM
CC(C)c1[nH]nc2c1N=C(c1ccccc1Cl)c1cc([N+](=O)[O-])ccc1N2,3.16 µM,> 20.7 µM
Nc1cc2c(cc1Br)[nH]c(=O)c1ccccc12,3.5 µM,28.9 µM
COc1ccc(-c2nccn2-c2ccc(OC)cc2)cc1,20.9 µM,74.7 µM
O=C(/C=C/c1ccccc1)c1ccccc1,,> 10 µM
CC(C)[C@H](O)C(=O)N[C@@H](C)C(=O)N[C@@H]1C(=O)N(C)CCc2ccccc21,> 100 µM,> 100 µM
C=CC(=O)N1CN(C(=O)C=C)CN(C(=O)C=C)C1,> 100 µM,> 100 µM
COc1ccc(-c2cnnn2-c2nonc2-n2cccc2)cc1,0.239 µM,2.13 µM
ClC(Cl)=C1C(=C(Cl)Cl)C(Cl)(Cl)C1(Cl)Cl,,10.4 µM
C#CCOc1cccc(Nc2ncnc3c(NC(=O)C=C)cccc23)c1,30.3 µM,> 100 µM
CO[C@H]1Nc2c(ccc(C)c2O)C(=O)N2C=C(/C=C/C(N)=O)C[C@@H]12,,0.0407 µM
O=C(/C(=C\c1c(-c2ccccc2)[nH]c2ccccc12)S(=O)(=O)c1ccccc1)c1ccccc1,39.5 µM,> 100 µM
COc1ccc(C(=O)c2cc(OC)c(OC)c(OC)c2)cc1OC,,8.83 µM
CCNC(=O)/C(=C/c1ccc(OC)cc1)c1cc(OC)c(OC)c(OC)c1,,> 42.2 µM
CCCc1cc(=O)n2c(C(=O)Nc3ccc(Cl)cc3C)c(C(=O)Nc3ccc(F)cc3)sc2n1,2.27 µM,8.55 µM
Cc1ccc(OCCOCCOCCOCCOc2ccc(C)n(O)c2=S)c(=S)n1O,3.58 µM,> 100 µM
N[C@H](CCC(=O)N[C@@H](Cc1c[nH]c2ccccc12)C(=O)O)C(=O)O,> 100 µM,> 100 µM
CN(C)CCNCCN,,> 100 µM
Nc1ccccc1O.O.O=C(O)C1[O][Sb][O]C1C(=O)O (stereo not drawn),9.07 µM,46.2 µM
O=C(c1ccco1)c1c(C(F)(F)F)n([O-])c2ccc(C(F)(F)F)cc2[n+]1=O,0.654 µM,2.74 µM
OC(c1cc(-c2ccc(C(F)(F)F)cc2)nc(C(F)(F)F)c1)C1CCCCN1 (stereo not drawn),1.96 µM and 3.92 µM,4.05 µM and 12.2 µM
CC(C)CC(C/C=C1/CC(CO)(COC(=O)C(C)(C)C)OC1=O)CC(C)C (stereo not drawn),,24.2 µM and 14.7 µM
O=C(Nc1cc(Nc2ncccc2-c2ncnc3nc[nH]c23)ccc1F)c1cc(C(F)(F)F)cc(C(F)(F)F)c1,1.8 µM,8.88 µM
CCc1ccc2c(c1)C(=O)c1c-2n(CCCN=[N+]=[N-])c(=O)c2cc([N+](=O)[O-])ccc12,> 50 µM,> 50 µM
CCC/C=C/C=C/C1CC(O)C(O)C(=O)C1CO (stereo not drawn),,> 100 µM

# System: RPMI-8226 leukemia
# Assay: NCI tumour cell line growth inhibition, 48 h
SMILES,GI50,TGI
O=C1CCCN1c1ccccc1I(=O)=O,> 100 µM,> 100 µM
COC(=O)C1=COC(C)C2CN3CCc4c([nH]c5ccccc45)C3CC12 (stereo not drawn),14.6 µM and 69 µM,56 µM and > 100 µM
O=C(NCc1ccc(Cn2c(=O)sn(-c3ccccc3)c2=O)cc1)OCc1ccc2cccc(O)c2n1,0.37 µM,4.97 µM
COC(c1ccc(C(C)(C)C)cc1)(c1ccc(C(C)(C)C)cc1)c1ccc(C(C)(C)C)cc1,,> 100 µM
CC(C)c1[nH]nc2c1N=C(c1ccccc1Cl)c1cc([N+](=O)[O-])ccc1N2,8.85 µM,> 22.6 µM
Nc1cc2c(cc1Br)[nH]c(=O)c1ccccc12,5.19 µM,42.3 µM
COc1ccc(-c2nccn2-c2ccc(OC)cc2)cc1,13.4 µM,36.6 µM
O=C(/C=C/c1ccccc1)c1ccccc1,,> 7.63 µM
CC(C)[C@H](O)C(=O)N[C@@H](C)C(=O)N[C@@H]1C(=O)N(C)CCc2ccccc21,> 100 µM,> 100 µM
C=CC(=O)N1CN(C(=O)C=C)CN(C(=O)C=C)C1,2.29 µM,6.76 µM
COc1ccc(-c2cnnn2-c2nonc2-n2cccc2)cc1,0.353 µM,5.02 µM
ClC(Cl)=C1C(=C(Cl)Cl)C(Cl)(Cl)C1(Cl)Cl,,3.69 µM
C#CCOc1cccc(Nc2ncnc3c(NC(=O)C=C)cccc23)c1,8.46 µM,47.2 µM
CO[C@H]1Nc2c(ccc(C)c2O)C(=O)N2C=C(/C=C/C(N)=O)C[C@@H]12,,8.51 µM
O=C(/C(=C\c1c(-c2ccccc2)[nH]c2ccccc12)S(=O)(=O)c1ccccc1)c1ccccc1,7.61 µM,> 100 µM
COc1ccc(C(=O)c2cc(OC)c(OC)c(OC)c2)cc1OC,,> 100 µM
CCNC(=O)/C(=C/c1ccc(OC)cc1)c1cc(OC)c(OC)c(OC)c1,,> 100 µM
CCCc1cc(=O)n2c(C(=O)Nc3ccc(Cl)cc3C)c(C(=O)Nc3ccc(F)cc3)sc2n1,2.7 µM,6.88 µM
Cc1ccc(OCCOCCOCCOCCOc2ccc(C)n(O)c2=S)c(=S)n1O,0.0267 µM,> 64 µM
N[C@H](CCC(=O)N[C@@H](Cc1c[nH]c2ccccc12)C(=O)O)C(=O)O,> 100 µM,> 100 µM
CN(C)CCNCCN,,> 100 µM
Nc1ccccc1O.O.O=C(O)C1[O][Sb][O]C1C(=O)O (stereo not drawn),1.51 µM,6.56 µM
O=C(c1ccco1)c1c(C(F)(F)F)n([O-])c2ccc(C(F)(F)F)cc2[n+]1=O,0.383 µM,1.68 µM
OC(c1cc(-c2ccc(C(F)(F)F)cc2)nc(C(F)(F)F)c1)C1CCCCN1 (stereo not drawn),0.418 µM,2.04 µM and 5.07 µM
CC(C)CC(C/C=C1/CC(CO)(COC(=O)C(C)(C)C)OC1=O)CC(C)C (stereo not drawn),17.1 µM and 3.85 µM,54.5 µM and 21.2 µM
O=C(Nc1cc(Nc2ncccc2-c2ncnc3nc[nH]c23)ccc1F)c1cc(C(F)(F)F)cc(C(F)(F)F)c1,2.12 µM,6.4 µM
CCc1ccc2c(c1)C(=O)c1c-2n(CCCN=[N+]=[N-])c(=O)c2cc([N+](=O)[O-])ccc12,> 50 µM,> 50 µM
CCC/C=C/C=C/C1CC(O)C(O)C(=O)C1CO (stereo not drawn),,> 100 µM

# Source: PubChem BioAssay (NCI)
